# Assay results from publication PMC5224920, “Assessing the mechanism and therapeutic potential of modulators of the human Mediator complex-associated protein kinases” (eLife, 2016).
# System: 12 single or co-culture in vitro tissue models of primary cells
# Assay: Culture/co-culture cell model panel, extracellular biomarkers (DiscoveRx); for CCL2/MCP-1: reference of the scale not given here; for CD141/Thrombomodulin: reference of the scale not given here; for CD142/Tissue Factor: reference of the scale not given here; for CXCL8/IL-8: reference of the scale not given here; for CXCL9/MIG: reference of the scale not given here; for M-CSF: reference of the scale not given here; for Proliferation: reference of the scale not given here; for SRB: reference of the scale not given here
# Type: cell-based, human
compound,measurement,setting,value
Cc1n[nH]c2ncc(C(=O)N3CCC[C@H]3c3ccc(Cl)cc3)cc12 [CMPD4],CCL2/MCP-1,"3C, 1.00E4 nM",-0.095
same,CD54/ICAM-1,"3C, 1.00E4 nM",-0.015
same,CD62E/E-Selectin,"3C, 1.00E4 nM",0.054
same,CD87/uPAR,"3C, 1.00E4 nM",-0.432
same,CD106/VCAM-1,"3C, 1.00E4 nM",0.073
same,CD141/Thrombomodulin,"3C, 1.00E4 nM",0.088
same,CD142/Tissue Factor,"3C, 1.00E4 nM",0.112
same,CXCL8/IL-8,"3C, 1.00E4 nM",-0.381
same,CXCL9/MIG,"3C, 1.00E4 nM",-0.030
same,HLA-DR,"3C, 1.00E4 nM",-0.292
same,Proliferation,"3C, 1.00E4 nM",-0.144
same,SRB,"3C, 1.00E4 nM",-0.077
same,CCL2/MCP-1,"3C, 1.11E3 nM",-0.139
same,CD54/ICAM-1,"3C, 1.11E3 nM",-0.012
same,CD62E/E-Selectin,"3C, 1.11E3 nM",0.043
same,CD87/uPAR,"3C, 1.11E3 nM",-0.475
same,CD106/VCAM-1,"3C, 1.11E3 nM",0.074
same,CD141/Thrombomodulin,"3C, 1.11E3 nM",0.143
same,CD142/Tissue Factor,"3C, 1.11E3 nM",0.111
same,CXCL8/IL-8,"3C, 1.11E3 nM",-0.399
same,CXCL9/MIG,"3C, 1.11E3 nM",-0.035
same,HLA-DR,"3C, 1.11E3 nM",-0.213
same,Proliferation,"3C, 1.11E3 nM",-0.067
same,SRB,"3C, 1.11E3 nM",-0.088
same,CCL2/MCP-1,"3C, 1.23E2 nM",-0.155
same,CD54/ICAM-1,"3C, 1.23E2 nM",-0.013
same,CD62E/E-Selectin,"3C, 1.23E2 nM",0.033
same,CD87/uPAR,"3C, 1.23E2 nM",-0.463
same,CD106/VCAM-1,"3C, 1.23E2 nM",0.092
same,CD141/Thrombomodulin,"3C, 1.23E2 nM",0.134
same,CD142/Tissue Factor,"3C, 1.23E2 nM",0.145
same,CXCL8/IL-8,"3C, 1.23E2 nM",-0.289
same,CXCL9/MIG,"3C, 1.23E2 nM",-0.028
same,HLA-DR,"3C, 1.23E2 nM",-0.216
same,Proliferation,"3C, 1.23E2 nM",-0.036
same,SRB,"3C, 1.23E2 nM",-0.101
same,CCL2/MCP-1,"3C, 1.37E1 nM",-0.054
same,CD54/ICAM-1,"3C, 1.37E1 nM",-0.029
same,CD62E/E-Selectin,"3C, 1.37E1 nM",0.033
same,CD87/uPAR,"3C, 1.37E1 nM",-0.383
same,CD106/VCAM-1,"3C, 1.37E1 nM",0.060
same,CD141/Thrombomodulin,"3C, 1.37E1 nM",0.107
same,CD142/Tissue Factor,"3C, 1.37E1 nM",0.109
same,CXCL8/IL-8,"3C, 1.37E1 nM",-0.180
same,CXCL9/MIG,"3C, 1.37E1 nM",-0.010
same,HLA-DR,"3C, 1.37E1 nM",-0.145
same,Proliferation,"3C, 1.37E1 nM",-0.003
same,SRB,"3C, 1.37E1 nM",-0.076
same,CCL2/MCP-1,"3C, 3.33E3 nM",-0.119
same,CD54/ICAM-1,"3C, 3.33E3 nM",-0.027
same,CD62E/E-Selectin,"3C, 3.33E3 nM",0.034
same,CD87/uPAR,"3C, 3.33E3 nM",-0.471
same,CD106/VCAM-1,"3C, 3.33E3 nM",0.069
same,CD141/Thrombomodulin,"3C, 3.33E3 nM",0.129
same,CD142/Tissue Factor,"3C, 3.33E3 nM",0.128
same,CXCL8/IL-8,"3C, 3.33E3 nM",-0.412
same,CXCL9/MIG,"3C, 3.33E3 nM",-0.032
same,HLA-DR,"3C, 3.33E3 nM",-0.242
same,Proliferation,"3C, 3.33E3 nM",-0.090
same,SRB,"3C, 3.33E3 nM",-0.073
same,CCL2/MCP-1,"3C, 3.70E2 nM",-0.153
same,CD54/ICAM-1,"3C, 3.70E2 nM",-0.078
same,CD62E/E-Selectin,"3C, 3.70E2 nM",0.052
same,CD87/uPAR,"3C, 3.70E2 nM",-0.455
same,CD106/VCAM-1,"3C, 3.70E2 nM",0.094
same,CD141/Thrombomodulin,"3C, 3.70E2 nM",0.139
same,CD142/Tissue Factor,"3C, 3.70E2 nM",0.142
same,CXCL8/IL-8,"3C, 3.70E2 nM",-0.363
same,CXCL9/MIG,"3C, 3.70E2 nM",-0.028
same,HLA-DR,"3C, 3.70E2 nM",-0.210
same,Proliferation,"3C, 3.70E2 nM",-0.026
same,SRB,"3C, 3.70E2 nM",-0.097
same,CCL2/MCP-1,"3C, 4.12E1 nM",-0.076
same,CD54/ICAM-1,"3C, 4.12E1 nM",-0.033
same,CD62E/E-Selectin,"3C, 4.12E1 nM",0.032
same,CD87/uPAR,"3C, 4.12E1 nM",-0.415
same,CD106/VCAM-1,"3C, 4.12E1 nM",0.093
same,CD141/Thrombomodulin,"3C, 4.12E1 nM",0.127
same,CD142/Tissue Factor,"3C, 4.12E1 nM",0.136
same,CXCL8/IL-8,"3C, 4.12E1 nM",-0.222
same,CXCL9/MIG,"3C, 4.12E1 nM",-0.007
same,HLA-DR,"3C, 4.12E1 nM",-0.208
same,Proliferation,"3C, 4.12E1 nM",-0.018
same,SRB,"3C, 4.12E1 nM",-0.080
same,CCL2/MCP-1,"3C, 4.57E0 nM",0.026
same,CD54/ICAM-1,"3C, 4.57E0 nM",-0.005
same,CD62E/E-Selectin,"3C, 4.57E0 nM",0.022
same,CD87/uPAR,"3C, 4.57E0 nM",-0.265
same,CD106/VCAM-1,"3C, 4.57E0 nM",0.039
same,CD141/Thrombomodulin,"3C, 4.57E0 nM",0.096
same,CD142/Tissue Factor,"3C, 4.57E0 nM",0.092
same,CXCL8/IL-8,"3C, 4.57E0 nM",-0.109
same,CXCL9/MIG,"3C, 4.57E0 nM",-0.014
same,HLA-DR,"3C, 4.57E0 nM",-0.077
same,Proliferation,"3C, 4.57E0 nM",-0.017
same,SRB,"3C, 4.57E0 nM",-0.052
same,CCL2/MCP-1,"/HDF3CT, 1.00E4 nM",-0.123
same,CD54/ICAM-1,"/HDF3CT, 1.00E4 nM",-0.074
same,CD106/VCAM-1,"/HDF3CT, 1.00E4 nM",0.00544
same,CXCL8/IL-8,"/HDF3CT, 1.00E4 nM",-0.159
same,CXCL9/MIG,"/HDF3CT, 1.00E4 nM",-0.043
same,CXCL10/IP-10,"/HDF3CT, 1.00E4 nM",-0.008
same,Collagen I,"/HDF3CT, 1.00E4 nM",-0.050
same,M-CSF,"/HDF3CT, 1.00E4 nM",-0.035
same,MMP-1,"/HDF3CT, 1.00E4 nM",-0.057
same,PAI-I,"/HDF3CT, 1.00E4 nM",-0.206
same,SRB,"/HDF3CT, 1.00E4 nM",-0.005
same,TIMP-2,"/HDF3CT, 1.00E4 nM",0.00643
same,CCL2/MCP-1,"/HDF3CT, 1.11E3 nM",-0.116
same,CD54/ICAM-1,"/HDF3CT, 1.11E3 nM",-0.059
same,CD106/VCAM-1,"/HDF3CT, 1.11E3 nM",0.008
same,CXCL8/IL-8,"/HDF3CT, 1.11E3 nM",-0.199
same,CXCL9/MIG,"/HDF3CT, 1.11E3 nM",-0.051
same,CXCL10/IP-10,"/HDF3CT, 1.11E3 nM",0.00172
same,Collagen I,"/HDF3CT, 1.11E3 nM",-0.048
same,M-CSF,"/HDF3CT, 1.11E3 nM",-0.052
same,MMP-1,"/HDF3CT, 1.11E3 nM",-0.043
same,PAI-I,"/HDF3CT, 1.11E3 nM",-0.122
same,SRB,"/HDF3CT, 1.11E3 nM",0.010
same,TIMP-2,"/HDF3CT, 1.11E3 nM",0.028
same,CCL2/MCP-1,"/HDF3CT, 1.23E2 nM",-0.004
same,CD54/ICAM-1,"/HDF3CT, 1.23E2 nM",-0.048
same,CD106/VCAM-1,"/HDF3CT, 1.23E2 nM",0.017
same,CXCL8/IL-8,"/HDF3CT, 1.23E2 nM",-0.167
same,CXCL9/MIG,"/HDF3CT, 1.23E2 nM",-0.040
same,CXCL10/IP-10,"/HDF3CT, 1.23E2 nM",0.011
same,Collagen I,"/HDF3CT, 1.23E2 nM",-0.027
same,M-CSF,"/HDF3CT, 1.23E2 nM",-0.051
same,MMP-1,"/HDF3CT, 1.23E2 nM",0.00166
same,PAI-I,"/HDF3CT, 1.23E2 nM",-0.00646
same,SRB,"/HDF3CT, 1.23E2 nM",0.00373
same,TIMP-2,"/HDF3CT, 1.23E2 nM",0.061
same,CCL2/MCP-1,"/HDF3CT, 1.37E1 nM",0.037
same,CD54/ICAM-1,"/HDF3CT, 1.37E1 nM",-0.040
same,CD106/VCAM-1,"/HDF3CT, 1.37E1 nM",0.019
same,CXCL8/IL-8,"/HDF3CT, 1.37E1 nM",-0.056
same,CXCL9/MIG,"/HDF3CT, 1.37E1 nM",0.00152
same,CXCL10/IP-10,"/HDF3CT, 1.37E1 nM",0.022
same,Collagen I,"/HDF3CT, 1.37E1 nM",-0.019
same,M-CSF,"/HDF3CT, 1.37E1 nM",-0.071
same,MMP-1,"/HDF3CT, 1.37E1 nM",0.083
same,PAI-I,"/HDF3CT, 1.37E1 nM",0.023
same,SRB,"/HDF3CT, 1.37E1 nM",0.004
same,TIMP-2,"/HDF3CT, 1.37E1 nM",0.069
same,CCL2/MCP-1,"/HDF3CT, 3.33E3 nM",-0.101
same,CD54/ICAM-1,"/HDF3CT, 3.33E3 nM",-0.068
same,CD106/VCAM-1,"/HDF3CT, 3.33E3 nM",0.005
same,CXCL8/IL-8,"/HDF3CT, 3.33E3 nM",-0.189
same,CXCL9/MIG,"/HDF3CT, 3.33E3 nM",-0.053
same,CXCL10/IP-10,"/HDF3CT, 3.33E3 nM",0.002
same,Collagen I,"/HDF3CT, 3.33E3 nM",-0.071
same,M-CSF,"/HDF3CT, 3.33E3 nM",-0.054
same,MMP-1,"/HDF3CT, 3.33E3 nM",-0.042
same,PAI-I,"/HDF3CT, 3.33E3 nM",-0.184
same,SRB,"/HDF3CT, 3.33E3 nM",0.008
same,TIMP-2,"/HDF3CT, 3.33E3 nM",0.012
same,CCL2/MCP-1,"/HDF3CT, 3.70E2 nM",-0.041
same,CD54/ICAM-1,"/HDF3CT, 3.70E2 nM",-0.059
same,CD106/VCAM-1,"/HDF3CT, 3.70E2 nM",0.017
same,CXCL8/IL-8,"/HDF3CT, 3.70E2 nM",-0.180
same,CXCL9/MIG,"/HDF3CT, 3.70E2 nM",-0.046
same,CXCL10/IP-10,"/HDF3CT, 3.70E2 nM",0.00747
same,Collagen I,"/HDF3CT, 3.70E2 nM",-0.040
